According to US8404643B2, “Metastin derivatives and use thereof” (priority 2005, dated 2013):
Square brackets hold non-standard residues; d marks the D form. Peptide text beside a SMILES is read from it. Phe(3-F) = N[C@@H](Cc1cccc(F)c1)C(=O)O; Phe(4-F) = N[C@@H](Cc1ccc(F)cc1)C(=O)O; Arg(Me) = CNC(=N)NCCC[C@H](N)C(=O)O; Hyp = O=C(O)[C@@H]1C[C@@H](O)CN1; Aib = CC(C)(N)C(=O)O; azaGly = NNC(=O)O

target: T1, hOT7T175 (Homo sapiens, UniProt Q969F8); assay: Assay for intracellular Ca ion level-increasing activity using FLIPR; type: cell-based; details: hOT7T175/CHO cells, relative to Metastin (1-54)
T1 construct: expressed in transfected cells
In short: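 CHO/dhfr− cells stably transfected with hOT7T175, selected for high metastin response, loaded with Fluo3-AM for 1 h at 37 °C in HANKS/HBSS (pH 7.4) with probenecid. Peptides were diluted from 1×10^−3 M DMSO stock into HANKS/HBSS with 2.5 mM probenecid, 0.2% BSA, 0.1% CHAPS; intracellular Ca rise read by FLIPR.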

T1 sequence (Q969F8 whole entry L364H): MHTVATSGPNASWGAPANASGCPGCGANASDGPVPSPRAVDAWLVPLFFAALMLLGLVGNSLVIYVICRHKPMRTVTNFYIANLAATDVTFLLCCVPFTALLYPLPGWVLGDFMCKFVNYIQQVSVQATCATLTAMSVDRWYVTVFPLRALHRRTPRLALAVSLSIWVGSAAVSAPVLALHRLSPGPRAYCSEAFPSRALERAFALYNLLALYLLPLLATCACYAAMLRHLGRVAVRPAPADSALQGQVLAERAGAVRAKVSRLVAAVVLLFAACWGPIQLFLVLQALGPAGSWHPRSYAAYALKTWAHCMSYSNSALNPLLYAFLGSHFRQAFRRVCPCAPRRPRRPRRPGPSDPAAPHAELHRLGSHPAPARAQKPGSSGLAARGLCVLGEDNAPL

Row | Compound | Specific Activity: intracellular Ca ion level-increasing activity [specific activity to Metastin (1-54)]
1 | CNC(=N)NCCC[C@H](NC(=O)[C@H](CC(C)C)NC(=O)NNC(=O)[C@H](Cc1cccc(F)c1)NC(=O)[C@@H](NC(=O)[C@H](CC(N)=O)NC(=O)C(C)(C)NC(=O)[C@@H](Cc1ccc(O)cc1)NC(C)=O)[C@@H](C)O)C(=O)N[C@@H](Cc1c[nH]c2ccccc12)C(N)=O [Compound No. 786, Ac-D-Tyr-Aib-Asn-Thr-Phe(3F)-AzaGly-Leu-Arg(Me)-Trp-NH2] (Ac-[dY][Aib]NT[Phe(3-F)][azaGly]L[Arg(Me)]W-NH2) | 3.3
2 | CNC(=N)NCCC[C@H](NC(=O)[C@H](CC(C)C)NC(=O)NNC(=O)[C@H](Cc1ccc(F)cc1)NC(=O)[C@@H](NC(=O)[C@H](CC(N)=O)NC(=O)[C@@H]1C[C@@H](O)CN1C(=O)[C@@H](Cc1ccc(O)cc1)NC(C)=O)[C@@H](C)O)C(=O)N[C@@H](Cc1c[nH]c2ccccc12)C(N)=O [Compound No. 787, Ac-D-Tyr-Hyp-Asn-Thr-Phe(4F)-AzaGly-Leu-Arg(Me)-Trp-NH2] (Ac-[dY][Hyp]NT[Phe(4-F)][azaGly]L[Arg(Me)]W-NH2) | 2.3
3 | CNC(=N)NCCC[C@H](NC(=O)[C@H](CC(C)C)NC(=O)NNC(=O)[C@H](Cc1ccc(F)cc1)NC(=O)[C@@H](NC(=O)[C@H](CC(N)=O)NC(=O)[C@H](CCC(=O)O)NC(=O)[C@@H](Cc1ccc(O)cc1)NC(C)=O)[C@@H](C)O)C(=O)N[C@@H](Cc1c[nH]c2ccccc12)C(N)=O [Compound No. 788, Ac-D-Tyr-Glu-Asn-Thr-Phe(4F)-AzaGly-Leu-Arg(Me)-Trp-NH2] (Ac-[dY]ENT[Phe(4-F)][azaGly]L[Arg(Me)]W-NH2) | 2.7

Continued, values first:

Row | Specific Activity: intracellular Ca ion level-increasing activity [specific activity to Metastin (1-54)] | Compound
4 | 3.4 | CNC(=N)NCCC[C@H](NC(=O)[C@H](CC(C)C)NC(=O)NNC(=O)[C@H](Cc1ccc(F)cc1)NC(=O)[C@@H](NC(=O)[C@H](CC(N)=O)NC(=O)[C@H](CCCCN)NC(=O)[C@@H](Cc1ccc(O)cc1)NC(C)=O)[C@@H](C)O)C(=O)N[C@@H](Cc1c[nH]c2ccccc12)C(N)=O [Compound No. 789, Ac-D-Tyr-Lys-Asn-Thr-Phe(4F)-AzaGly-Leu-Arg(Me)-Trp-NH2] (Ac-[dY]KNT[Phe(4-F)][azaGly]L[Arg(Me)]W-NH2)
5 | 2.3 | CNC(=N)NCCC[C@H](NC(=O)[C@H](CC(C)C)NC(=O)NNC(=O)[C@H](Cc1ccc(F)cc1)NC(=O)[C@@H](NC(=O)[C@H](CC(N)=O)NC(=O)CNC(=O)[C@@H](Cc1ccc(O)cc1)NC(C)=O)[C@@H](C)O)C(=O)N[C@@H](Cc1c[nH]c2ccccc12)C(N)=O [Compound No. 790, Ac-D-Tyr-Gly-Asn-Thr-Phe(4F)-AzaGly-Leu-Arg(Me)-Trp-NH2] (Ac-[dY]GNT[Phe(4-F)][azaGly]L[Arg(Me)]W-NH2)
6 | 2.9 | CNC(=N)NCCC[C@H](NC(=O)[C@H](CC(C)C)NC(=O)NNC(=O)[C@H](Cc1ccc(F)cc1)NC(=O)[C@@H](NC(=O)[C@H](CC(N)=O)NC(=O)C(C)(C)NC(=O)[C@@H](Cc1ccc(O)cc1)NC(C)=O)[C@@H](C)O)C(=O)N[C@@H](Cc1c[nH]c2ccccc12)C(N)=O [Compound No. 791, Ac-D-Tyr-Aib-Asn-Thr-Phe(4F)-AzaGly-Leu-Arg(Me)-Trp-NH2] (Ac-[dY][Aib]NT[Phe(4-F)][azaGly]L[Arg(Me)]W-NH2)
7 | 2.3 | CNC(=N)NCCC[C@H](NC(=O)[C@H](CC(C)C)NC(=O)NNC(=O)[C@@H](Cc1ccccc1)NC(=O)[C@@H](NC(=O)[C@H](CC(N)=O)NC(=O)[C@@H]1C[C@@H](O)CN1C(=O)[C@@H](Cc1ccc(O)cc1)NC(C)=O)[C@@H](C)O)C(=O)N[C@@H](Cc1c[nH]c2ccccc12)C(N)=O [Compound No. 794, Ac-D-Tyr-Hyp-Asn-Thr-D-Phe-AzaGly-Leu-Arg(Me)-Trp-NH2] (Ac-[dY][Hyp]NT[dF][azaGly]L[Arg(Me)]W-NH2)
